Series [1] has as its system C. albicans SC-5314 biofilms. In words: Adhesion phase biofilms (prevention) on silicone elastomer discs. In kind it is cell-based, Candida albicans. The procedure:
Biofilms were formed on silicone elastomer (SE) discs using a catheter-associated-biofilm model (Chandra et al., Nature Protocols 3:1909, 2008; Chandra et al., J. […] Chandra et al., J. Dental Research 80: 903, 2001). For evaluation of activity against adhesion phase biofilms (prevention), Candida cells were adhered to catheter discs for 90 min. […] Discs incubated with fluconazole or media alone were used as controls in all experiments. […] Chandra et al., J. […] Chandra et al., J. Dental Research 80: 903, 2001). Following incubation with drugs, discs were transferred to fresh plates containing phosphate buffered saline with XTT and menadione, incubated for 3 h at 37° C. and optical density was read at 492 nm. Separate batches of biofilms were stained with fluorescent dyes (FUN1™, CONA) and observed under Confocal Scanning Laser Microscope (CSLM) to evaluate biofilm architecture and thickness (Chandra et al., Nature Protocols 3:1909, 2008; Chandra et al., J. […] Statistical analyses for all data were performed using GraphPad Prism 6 software. Drug treated groups were compared to control untreated groups using unpaired t-tests.

Series [2] is described as follows: Monkey SC tolerability study. It is filed as in vivo, cynomolgus monkeys. The procedure:
Therefore, only local tolerability (and PK) of CD101 by SC administration required evaluation. […] Plasma concentrations were then quantified by liquid chromatography with tandem mass spectrometric detection (LC-MS/MS). Bioavailability from SC dosing was calculated by comparing the calculated area under the concentration-time profile (AUC) from SC against the AUC from IV administration of the same dose.
Therefore, a separate study was designed to evaluate the tolerability of a SC dose of CD101 as a highly concentrated solution (100 mg/mL; 30 mg/kg) in two cynomolgus monkeys. […] The drug reaches a maximum concentration within a few hours then remains nearly constant over the course of 10 days.

Series [3] is classed as in vivo, Wistar rats. Here is the method: Endpoints. The rats were monitored at a frequency appropriate for their clinical condition. Rat weights were recorded at least once daily to ensure animals remained within ethical limits.
Reduction in weight and general loss of condition due to estradiol treatment are also typical in this rat model. Colonization with C. albicans was determined by quantitative culture of daily vaginal lavage samples. Rats were euthanized 9 days post infection and C. albicans determined by quantitative culture of vaginal tissue (including uterine horns).

A further series concerns C. albicans. In words: In vitro susceptibility testing (CLSI M27-A3). The note with it: Candida albicans, 24 h. It is filed as cell-based. Here is the method:
Strains. Ten clinical Candida strains were used for the in vivo treatment studies, including four C. albicans, three C. glabrata, and three C. parapsilosis strains (Table 18). This group was selected to encompass phenotypic variability in susceptibility to triazoles and echinocandins and based on similar fitness in the animal model as defined by the amount of growth in control animals over 24 h. The organisms were maintained, grown, and quantified on Sabouraud's dextrose agar (SDA) plates.
In vitro susceptibility testing. All isolates were tested in accordance with the standards in CLSI document M27-A3. The MICs were determined visually after 24 h of incubation as the lowest concentration of drug that causes a significant diminution (≥50%) of growth compared to controls. MICs were determined on three separate occasions in duplicate.

The test system of series [4] is A. fumigatus clinical isolates. To be noted: SENTRY surveillance (Pfaller, et al 2017); cited from earlier work.

Numbered stars: 1 amine (or outer) side, 2 acyl side, 3 side chain; on linkers, the order of the positions; unused ones are H or OH. Bridge positions count the residues as written; N and C are the ends. Square brackets hold non-standard residues; d marks the D form. Peptide text beside a SMILES is read from it. * marks the point of attachment. ξ: configuration not given here. Orn(4R-OH,5R-OCH2CH2NMe3+) = C[N+](C)(C)CCO[C@@H](N[*:3])[C@H](O)C[C@H](N[*:1])C(=O)[*:2]; pTerphenylCO(4''-OnC5H11) = CCCCCOc1ccc(-c2ccc(-c3ccc(C(=O)*)cc3)cc2)cc1; hTyr(3S-OH,4S-OH) = N[C@H](C(=O)O)[C@H](O)[C@@H](O)c1ccc(O)cc1; X1 = C[C@H]1CN([*:1])C(C(=O)[*:2])C1O; Hyp = O=C(O)[C@@H]1C[C@@H](O)CN1; ξT = CC(O)C(N)C(=O)O

`CCCCCOc1ccc(-c2ccc(-c3ccc(C(=O)N[C@H]4C[C@@H](O)[C@@H](OCC[N+](C)(C)C)NC(=O)C5C(O)[C@@H](C)CN5C(=O)[C@H]([C@@H](C)O)NC(=O)[C@H]([C@H](O)[C@@H](O)c5ccc(O)cc5)NC(=O)[C@@H]5C[C@@H](O)CN5C(=O)C(C(C)O)NC4=O)cc3)cc2)cc1` (stereo partly drawn) [CD101] ({pTerphenylCO(4''-OnC5H11)}-[Orn(4R-OH,5R-OCH2CH2NMe3+)][ξT][Hyp][hTyr(3S-OH,4S-OH)]T[X1]; lactam 1-C): in series [1] (0.25 and 1 μg/ml), the “biofilm architecture (CSLM)” value was “only remnants of adhered cells, and no biofilm maturation”. The “biofilm metabolic activity (XTT)” value in series [1] (0.25 and 1 μg/ml, 24 h, vs untreated, P<0.05) was “significantly less biofilms”. Moreover, the thickness of biofilms in series [1] (CD101 exposed, untreated control 36 μm, P<0.05) worked out at 4 μm. Besides, in series [2] (single 30 mg/kg SC (100 mg/mL)), the “local (injection site) tolerability” value is reported as “no sign of irritation or local (injection site) adverse toxicity”. The “bodyweight and food consumption” value in series [2] (single 30 mg/kg SC, 10 days follow-up) is “no effect on bodyweight or food consumption”. Moreover, the tolerability result in series [3] (all treatment doses and durations) is “well tolerated with no adverse events observed”. Moreover, the weight loss result in series [3] (ovariectomised, estradiol-treated rats) is reported as “did not seem to be exacerbated”. For the same compound, the MIC (as a rule, the lowest concentration found to suppress growth) came out at 0.06 µg/mL against C. albicans (strain 98-17), 0.03 µg/mL against C. albicans (strain 98-210), 0.06 µg/mL against C. albicans (strain 580) and 0.06 µg/mL against C. albicans (strain K-1). The MEC90 in series [4] was 0.015 µg/mL.

Source of the values: patent US20240076347A1, “METHODS FOR PREVENTING FUNGAL INFECTIONS” (Cidara Therapeutics, Inc., priority 2016, published 2024).
